Measured values published in publication PMC11459959, “Discovery of new acetamide derivatives of 5-indole-1,3,4-oxadiazol-2-thiol as inhibitors of HIV-1 Tat-mediated viral transcription” (Antimicrobial Agents and Chemotherapy, 2024).
Like-named read-outs stand apart in the source and are kept apart here.

How the values were obtained:
[1] = Cell viability of A3.01 cells; type: cell-based; settings: human; A3.01 cells, absence of HIV-1 infection; mean ± SD; read-out: CC50
Experimental: (§1) The p24 level from the cell supernatant was subsequently determined using a p24 […] kit (PerkinElmer). In parallel, the cell viability was determined without viral infection because of the viral cytopathic effect. […] In parallel, cell viability was determined. The data (A and B) are presented as the mean ± SD (n = 3). (C) PBMCs (4 × 10^5) infected with HIV-AD8 at an MOI of 0.1 were treated with 1.5 µM of the compounds or ARVs for 3 days. The levels of p24 and cell viability were subsequently determined. (D) J1.1 cells were cultured with the compounds ([…]) under 50 ng/mL phorbol myristate acetate (PMA) treatment for 2 days. The level of p24 was subsequently determined. (E) J-Lat 6.3 cells were treated with the compounds (1.5 µM) under 1 µg/mL of PMA for 2 days. The GFP-positive cell population was analyzed using flow cytometry. The data are represented as a value relative to the DMSO-treated vehicle (D) and a percent of the GFP^+ cell population (E) as mean ± SD (n = 3).
(§2) The inhibitory effects of the compounds on viral replication were determined with some minor modifications, as previously described ([12], [62]). […] PBMCs (4 × 10^5) pre-activated with PHA-M for 3 days were washed with fresh media to remove excess PHA-M and subsequently infected with HIV-1NL4-3 or HIV-1AD8 or PIs-resistant HIV-1 strains as A3.01 infection. After infection, the infectious media were replaced with fresh media supplemented with international 10 units (IU)/mL of IL-2 and the indicated compounds. At 72 h after infection, the inhibitory effect of the compounds on viral replication was determined by measuring the p24 amount, an HIV capsid protein, using an HIV-1 p24 […] kit (PerkinElmer, Waltham, MA, USA). Cell viability was determined as described above. The inhibitory effects on provirus reversing in J1.1 and J-Lat 6.3 cells were determined as previously described ([12], [41], [63]) with some minor modifications. Briefly, 5 × 10^4 persistently HIV-1-infected J1.1 or J-Lat 6.3 cells were cultured in either the presence or absence of the compounds at a final concentration of 1.5 µM and treated with PMA (50 ng/mL for J1.1 cells, 1 µg/mL for J-Lat 6.3 cells). Two days after treatment, the levels of viral production were determined using p24 […] for J1.1 cells and flow cytometry analysis for GFP-expressing J-Lat 6.3 cells.

[2] = Cell viability of TZM-bl cells (PrestoBlue); type: cell-based; settings: human
Experimental: The TZM-bl cells (also referred to as JC53BL-13) expressing human CD4, CXCR4, and CCR5 carrying the F-Luc and lacZ genes downstream of the HIV-1 LTR promoter ([60]) were used to determine the inhibitory effect of the compounds on HIV-1 infection, as previously described ([11], [12], [61]). In brief, 1 × 10^4 cells were cultured in 96-well plates for 24 h and subsequently treated with compounds at the indicated concentrations. Without replacement of the culture medium, the cells were subsequently infected with the HIV-1NL4-3 wild-type or ARV-resistant HIV-1 strains at an MOI of 1 to determine the exact inhibitory effect of compounds on a single-round infection. After 48 h, the inhibitory effect of the compounds was determined using a Bright Glo luciferase assay kit (Promega) or β-Galactosidase Enzyme Assay kit (Promega). The infectivity data were presented as a percentage relative to the dimethyl sulfoxide (DMSO) control (vehicle). Cell viability was determined using the resazurin-based PrestoBlue Cell Viability Reagent (Thermo Fisher Scientific, Waltham, MA, USA) following the manufacturer’s instructions.

Cell viability of PBMCs = type: cell-based; settings: human; PBMCs, absence of HIV-1 infection; mean ± SD; read-out: CC50
Experimental: as §1, §2

[3] = system: HIV-1NL4-3 IRES-eGFP-nef+; experiment: eGFP-encoding HIV-1 infection of TZM-bl cells; type: cell-based; settings: 9, 10, 13 1.5 μM, 20, 21, 22 4 μM, seliciclib 10 µM, triptolide 5 nM, DTG 2 nM, EFV 2 nM, 2 days
Experimental: Fig 4 (A) Comparison of the chemical structures between prominent derivatives (9, 10, and 13) and non-functional derivatives (20, 21 and 22). (B) bl-DTR cells were treated with serial dilutions of each compound upon Dox for 24 h. The activities of F-Luc and R-Luc were determined using the Dual-Glo -Luciferase assay system. (C) TZM-bl cells were infected with the HIV-1NL4-3 strain at an MOI of 1 upon treatment of compounds. At 48 h after infection, the viral infectivity and cell viability were determined as described above (Fig. 1). (D) TZM-bl cells were infected with HIV-1NL4-3 IRES-eGFP virus along with the compound treatment. Two days later, GFP-expressing cells were observed by fluorescence microscopy (100× magnification). […] At 48 h after infection, the β-gal activity indicating viral infectivity was determined using the β-gal Enzyme Assay kit. F-Luc activity and cell viability were determined as described above (Fig. 4C). (C and E) The dose-response curves show the relative activity compared with that of the DMSO vehicle (mean ± SD; n = 3).

[4] = system: Tat-mediated LTR transcription; experiment: Dual-reporter assay, F-Luc (Tat-mediated LTR transcription) in bl-DTR cells; type: cell-based, HIV-1; settings: Human immunodeficiency virus 1, 24 h, read-out: IC50 of F-Luc (Tat)
Experimental: (§3) Fig 1 (A) (Top panel) Schematic representation of the primary compound screening using a dual-reporter system. […] (B). […] (Top graphs) bl-DTR cells (1 × 10^4) were treated with twofold serial dilutions of each compound before doxycycline (Dox) addition (final concentration, 50 ng/mL). After 24 h of treatment, the activities of firefly luciferase (F-Luc, red line) and Renilla luciferase (R-Luc, blue line) were determined using the Dual-Glo Luciferase assay system. (Bottom graphs) TZM-bl cells were treated with each indicated compound and subsequently infected with the HIV-1NL4-3 strain at a multiplicity of infection (MOI) of 1. At 48 h after infection, the viral infectivity (purple line) and cell viability (green line) were determined using the Bright-Glo luciferase assay kit and the PrestoBlue Cell Viability Reagent, respectively. […] (C). […] The targeted moieties for the SAR study are marked with dotted-circle lines.
(§4) The Tzm-bl-derived dual Tat reporter; TZM-bl/Tat/Rluc (bl-DTR) cells were established from TZM-bl cells using two Dox-inducible lentiviral expression cassettes cloned with Flag-tagged Tat86 and the R-Luc gene, as described in our previous study ([11]). TZM-bl, A3.01, J1.1, and J-Lat 6.3 cells as well as the HIV-1 molecular clone pNL4-3, pNL(AD8), ARV-resistant HIV-1 strains, and HIV-1NL43-IRES-eGFP (pBR43IeG-nef^+, gifted by Dr. Frank Kirchhoff) ([52]) were provided by the National Institute of Health HIV Reagent Program (NIH, Bethesda, MD, USA). HeLa (CCL-2) and 293T (CRL-3216) cell lines were purchased from the American Type Culture Collection (ATCC, Manassas, VA, USA). The bl-DTR, TZM-bl, HeLa, and 293T cells were cultured in Dulbecco’s modified Eagle’s medium supplemented with 1% penicillin–streptomycin and 10% (vol/vol) heat-inactivated fetal bovine serum (all from Gibco-BRL, Gaithersburg, MD, USA), and 1 µg/mL of puromycin and 200 µg/mL of zeocin were additionally supplemented for the bl-DTR cells. PBMCs were purchased from AllCells (Alameda, CA, USA) and cultured as previously described ([12]). The information on ARV-resistant HIV-1 strains was described in previous reports as follows: NNRTI-resistant 12241 and 12243 ([53]); NRTI-resistant 7396, 7406, and 7407 ([54]); INSTI-resistant 11847 and 11849 ([55], [56]); and PI-resistant 11800 and 11803 ([57]). Each molecular HIV-1 clone was transfected to 293T cells, as previously described ([58]), to obtain infectious HIV-1 particles. Virus-containing cell culture supernatants were collected 3 days after transfection, and filtered through a 0.45-µm membrane filter (Millipore Sigma, Burlington, MA, USA) to remove cell debris. The viral titration was performed as described previously ([59]) with some minor modifications. In brief, 1 × 10^4 TZM-bl cells seeded in 96-well plates were infected with 200 µL of virus-containing medium diluted serially twofold. The incubation was for 2 days and the experiment was performed in triplicate; the infection time minimized the virus spread ([59]). The titration of the infectious viral particles was performed with a ß-Gal staining assay using the ßeta-Galactosidase Staining Kit (Mirus Bio, Madison, WI, USA) following the manufacturer’s protocols. In brief, the infected cells were washed with phosphate-buffered saline (PBS) and fixed using a Cell Fixative Working solution. The cells were washed with PBS and stained using the Cell Staining Working Solution containing X-gal. The infected blue-colored cells were counted under a microscope (100× magnification). The infectious virus titer was determined as a mean value of blue-colored cells count × dilution factor and used for determining the multiplicity of infection (MOI) in each infection experiment.

[5] = system: general cellular transcription/translation (R-Luc); experiment: Dual-reporter assay, R-Luc in bl-DTR cells; type: cell-based; settings: doxycycline, 24 h
Experimental: as §3, §4

HIV-1NL4-3 [6] = experiment: HIV-1 infectivity in TZM-bl cells (F-Luc); type: cell-based; settings: for EC50: Human immunodeficiency virus 1, TZM-bl, 48 h, TZM-bl cells infected with HIV-1NL4-3 at MOI 1, 48 h, F-Luc, mean ± SD, read-out: EC50; for SI (CC50/EC50): TZM-bl cells
HIV-1NL4-3 [7] = experiment: Time-of-addition assay in TZM-bl cells; type: cell-based; settings: HIV-1NL4-3 MOI 1, 9 and 13 1.5 μM, T-20 1 µM, triptolide 5 nM, ARVs 1 µM, F-Luc at 54 h
Experimental: Fig 5 (A) Time-of-addition assay. […] Subsequently, the cells were treated with the compounds at the indicated time points (0, 1, 2, 4, 6, 8, 10, 12, 24, 30, 36, 42, and 48 h) after HIV-1 infection. The final concentrations of compounds are described in Materials and Methods. Viral activity according to the timing of drug addition was measured as F-Luc activity at 54 h after infection. The relative activities are represented as the mean ± SD (n = 3) compared with the activity observed 54 h post-infection. The relative time frames associated with each HIV-1 infection step are defined based on the time frame of susceptibility to the drug that blocks that particular infection step. […] At 16 h after infection, the viral reverse transcription (RT) product (viral cDNA) level was determined by quantitative real-time PCR (RT-qPCR) using gag and 18S rRNA primer sets and represented as the mean ± SD (n = 3) normalized against the amount of the 18S rRNA compared with the DMSO control. **P < 0.01 compared with the vehicle (DMSO). (C) An in vitro integrase (IN) assay was performed with 10 µM of the indicated compounds following the manufacturer’s protocol. **P < 0.01 compared with vehicle (DMSO). (D) A3.01 cells were infected with HIV-1 upon treatment with the indicated compounds (5 µM) and ARVs (EFV and DTG) as the experimental controls. At 40 h after infection, cellular chromosomal DNA was purified, and the integrated proviral DNA was detected through nested Alu-PCR amplification.
A time-of-addition assay was performed as previously described ([25]) with minor modifications. […] Reference drug and test compounds were subsequently added at the indicated time (0, 1, 2, 4, 6, 8, 10, 12, 24, 30, 36, 42, and 48 h after infection). Final concentrations were as follows: compounds 9 and 13 (1.5 μM), T-20 (1 µM), Triptolide (5 nM), and ARVs (AZT, EFV, DTG, RAL) (1 µM). The viral activity according to the timing of drug addition was measured using a Bright Glo luciferase assay kit (Promega). Virus activity curves present a % activity relative to the activity observed at 54 h after infection, and the data are presented as the mean ± standard deviation (SD) (n = 3). The relative time frame associated with each HIV-1 infection step was defined based on the sensitivity to each drug that blocks a particular infection step.

| Molecule | CC50 at 3 days [1] | CC50 at 48 h ([2]; TZM-bl cells, absence of HIV-1 infection, mean ± SD, read-out: CC50) | CC50 at 3 days (Cell viability of PBMCs) | inhibition of viral-expressed eGFP signal [3] | IC50 [4] | CC50 at 48 h [2] | Relative R-Luc activity at IC50 of F-Luc [5] | EC50 (HIV-1NL4-3 [6]) | SI (CC50/EC50) (HIV-1NL4-3 [6]) | time of administration after infection at which effectiveness began to decrease / was lost (HIV-1NL4-3 [7]) |
| --- | --- | --- | --- | --- | --- | --- | --- | --- | --- | --- |
| CC[C@H](CO)Nc1nc(NCc2ccccc2)c2ncn(C(C)C)c2n1 [seliciclib, reference compound] | 27 ± 1.12 µM | 39.2 ± 4.09 µM | 21.4 ± 2.1 µM | remarkably inhibited |  |  |  |  |  |  |
| Cc1[nH]c2ccc(-c3nnc(SCC(=O)N4CCCC(C)C4)o3)cc2c1C (stereo not shown) [Compound 10, 2-((5-(2,3-Dimethyl-1H-indol-5-yl)-1,3,4-oxadiazol-2-yl)thio)-1-(3-methylpiperidin-1-yl)ethan-1-one] |  |  |  | remarkably inhibited | 1.1 ± 0.07 µM | 82.5 ± 6.41 µM | >100 | 0.56 ± 0.05 µM | 147.27 |  |
| enfuvirtide [Compound T-20] |  |  |  |  |  |  |  |  |  | 1 h |
| Cc1[nH]c2ccc(-c3nnc(SC(C)C(=O)N4CCCC4)o3)cc2c1C (stereo not shown) [Compound 14, 2-((5-(2,3-Dimethyl-1H-indol-5-yl)-1,3,4-oxadiazol-2-yl)thio)-1-(pyrrolidin-1-yl)propan-1-one] |  |  |  |  | 3.82 ± 0.12 µM | 57.7 ± 6.01 µM | >100 | 3.31 ± 0.28 µM | 17.44 |  |
| Cc1[nH]c2ccc(-c3nnc(S(=O)(=O)CC(=O)N4CCCC4)o3)cc2c1C [Compound 22, 2-((5-(2,3-Dimethyl-1H-indol-5-yl)-1,3,4-oxadiazol-2-yl)sulfonyl)-1-(pyrrolidin-1-yl)ethan-1-one] |  |  |  | did not |  |  |  |  |  |  |
| Cc1[nH]c2ccc(-c3nnc(SC(C)C(=O)N4CCCCC4)o3)cc2c1C (stereo not shown) [Compound 11, 2-((5-(2,3-Dimethyl-1H-indol-5-yl)-1,3,4-oxadiazol-2-yl)thio)-1-(piperidin-1-yl)propan-1-one] |  |  |  |  | 0.43 ± 0.03 µM | 27.1 ± 1.95 µM | 100 | 0.4 ± 0.05 µM | 67.85 |  |
